This note sets out measurements from patent publication US20130095505A1, “DETECTION OF LIPID OXIDISING ABZYMES IN SAMPLES” (priority 2005, published 2013).

Test [1] relates to anti-Chlamydia abzymes. Format: biochemical, human. On the procedure:
(§1) For chemical inactivation, a diluent solution was divided into two portions. In one portion, an abzyme inhibitor was added.
(§2) The serum sample was split in two aliquots and one aliquot was diluted by solution containing the abzyme inhibitor, the second aliquot was diluted by the control solution. The aliquots were then tested in the same fashion.
ELISA assays were performed using Medac materials and reagents, which were used in accordance with the manufacturers instructions.
Briefly, serum samples from patients were treated as described above. 50 μl of sample diluent was pipetted into microtitre well Al as blank, and 50 μl of the negative control, Positive Control and the diluted patients' samples were pipetted into other microtitre wells. The microplate wells were incubated for 60 min (±5 min) at 37° C. (±1° C.) in a humid chamber and then washed three times with 200 μl wash buffer per well. 50 μl of Conjugate was then added to each well and the microplate wells incubated again for 60 min (±5 min) at 37° C. (±1° C.) in a humid chamber and then washed. 50 μl of TME-Substrate, was added to each well and the microplate wells incubated for 30 min (±2 min) at 37° C. (±1° C.) in a humid chamber. The reaction was stopped by adding 100 μl of Stop Solution, to each well.
Photometric reading was performed at 450 nm (ref. 620-650 nm) within 15 min after adding the Stop Solution.
To calculate the results, the OD value of the blank (well Al) was subtracted from all other OD values. […] Cut-off=mean OD value of the Negative Control+0.380. Grey zone=Cut-off±10%
If there was a difference between 10 and 15% (or an increase in one titer in MIF) of the signal between treated and non-treated samples the conclusion was that the activity of the abzymes was unclear, or in the “grey” zone.

The subject of test [2] is anti-Chlamydia abzymes. Format: biochemical, human. As to the method: as §1, §2
Lipid peroxidation was assessed as a level of MDA concentration, which was measured by spectrophotometric methods [Draper, H. H. et al Free Radio. Biol. Med. (1993) 15, 353]. Briefly, the level of abzymes in a sample was determined as follows: Samples of sera were diluted 1:1 by 0.05M acetate buffer pH 4.0 to make the final pH of these samples between 5.6-5.8. 994 μl of the diluted serum was mixed with 10 μl of the commercial live ovine Chlamydia vaccine (Intervet). Samples were incubated overnight (12-16 hours) at 37° C. 250 μl of 40% trichloroacetic acid and 250 μl of 1 mM 2-thiobarbituric acid was added to each sample. All samples were placed in a water bath and boiled for 30 minutes. Samples were cooled down and centrifuged at 3,000 g for 10 minutes. The supernatants were collected and their absorption measured at λ525 nm to determine the concentration of malondialdehydes (MDA), which are products of lipid peroxidation.
This is another data set of the same source.

Setting [3] is: summary in text, tested by ELISA and the lipid oxidation assay.
Where [4] appears, read: serum diluted with inhibitor solution vs control solution.
Where [5] appears, read: serum with live ovine Chlamydia vaccine, pH 5.6-5.8, overnight 37° C.

Entries after “also recorded” stand apart in the source; their conditions may differ. Read-outs that look alike come from different tables or passages of the source.

Regarding `CC[C@H]1OC(=O)[C@H](C)[C@@H](O[C@H]2C[C@@](C)(OC)[C@@H](O)[C@H](C)O2)[C@H](C)[C@@H](O[C@@H]2O[C@H](C)C[C@H](N(C)C)[C@H]2O)[C@](C)(O)C[C@@H](C)CN(C)[C@H](C)[C@@H](O)[C@]1(C)O` [azithromycin], the “Inhibition of abzyme activity (statement in text)” value (“Inhibition of abzyme activity” for short) in test [1] (setting [3]) is “abzyme inhibitors”.

Consider `O=C(O)CN(CCOCCOCCN(CC(=O)O)CC(=O)O)CC(=O)O` [EGTA], for which the “Inhibition of abzymes ability to cause: Damage of Chlamydia pneumoniae antigen, in ELISA” value (“Inhibition of abzymes ability … in ELISA” below) in test [1] (setting [4]) is on record as “Positive”. For the same molecule, the “Inhibition of abzyme activity” value in test [1] (setting [3]) is recorded as “inhibit abzyme activity”.

On to Haemoglobin, for which, in test [1], the “Inhibition of abzyme activity” value is listed as “inhibit abzyme activity; also recorded: abzyme inhibitors” and the “Inhibition of abzymes ability … in ELISA” value was “Positive”. Further, in test [2] (pH 5.6), the “Inhibition of abzymes ability to cause: Serum lipid peroxidation, in MDA assay” value (“Inhibition of abzymes ability … in MDA assay” for short) is “Positive”.

For the molecule `C[S+](C)[O-]` [DMSO], the “Inhibition of abzymes ability … in ELISA” value in test [1] (setting [4]) is on record as “Positive”. Besides, the “Inhibition of abzyme activity” value is given as “inhibit abzyme activity; also recorded: abzyme inhibitors” in test [1] (setting [3]); “abzyme inhibitors” in test [1] (tested by ELISA and the lipid oxidation assay, listed as DMS). The “Inhibition of abzymes ability … in MDA assay” value in test [2] (setting [5]) is “Positive”.

Regarding `O=C1O[C@H]([C@@H](O)CO)C(O)=C1O` [Ascorbic acid], the “Inhibition of abzymes ability … in ELISA” value in test [1] (setting [4]) is listed as “Positive”. Further, the “Inhibition of abzyme activity” value is listed as “inhibit abzyme activity” in test [1] (setting [3]); “abzyme inhibitors” in test [1] (summary in text, tested by ELISA and the lipid oxidation assay, listed as ascorbic acid). For the same molecule, the “Inhibition of abzymes ability … in MDA assay” value in test [2] (setting [5]) is reported as “Positive”.

In the case of `Cc1c(O)cc2c(c1C)O[C@](C)(CCC[C@H](C)CCC[C@H](C)CCCC(C)C)CC2` [(+) y-Tocopherol], the “Inhibition of abzymes ability … in ELISA” value in test [1] is listed as “Negative”. Moreover, the “Inhibition of abzymes ability … in MDA assay” value in test [2] (pH 5.6) was “Negative”.

For (+) Catechin gallate, in test [1] (setting [4]), the “Inhibition of abzymes ability … in ELISA” value is reported as “Positive”. Also, the “Inhibition of abzyme activity” value is “abzyme inhibitors” in test [1] (summary in text, tested by ELISA and the lipid oxidation assay, listed as (+) catechin gallate); “inhibit abzyme activity; also recorded: abzyme inhibitors” in test [1] (summary in text, tested by ELISA and the lipid oxidation assay, listed as catechin gallate). For the same molecule, the “Inhibition of abzymes ability … in MDA assay” value in test [2] (setting [5]) is reported as “Positive”.

`CC(C)=CCC/C(C)=C/C=C/C(C)=C/C=C/C(C)=C/C=C/C=C(C)/C=C/C=C(C)/C=C/C=C(\C)CCC=C(C)C` [Lycopene]: the “Inhibition of abzymes ability … in ELISA” value in test [1] (setting [4]) was “Negative”. Moreover, in test [2] (setting [5]), the “Inhibition of abzymes ability … in MDA assay” value was “Negative”.

`CC1=C(/C=C/C(C)=C/C=C/C(C)=C/C=C/C=C(C)/C=C/C=C(C)/C=C/C2=C(C)CCCC2(C)C)C(C)(C)CCC1` [β-Carotene]: in test [1], the “Inhibition of abzymes ability … in ELISA” value was “Negative”. Moreover, in test [2] (pH 5.6), the “Inhibition of abzymes ability … in MDA assay” value was “Negative”.

With `O=C(O)CN(CCN(CC(=O)O)CC(=O)O)CC(=O)O` [EDTA], in test [1], the “Inhibition of abzyme activity” value is “inhibit abzyme activity” and the “Inhibition of abzymes ability … in ELISA” value is “Positive”. For the same molecule, in test [2] (pH 5.6), the “Inhibition of abzymes ability … in MDA assay” value was “Positive”.

Take `CC[C@H]1OC(=O)[C@H](C)C(=O)[C@H](C)[C@@H](O[C@@H]2O[C@H](C)C[C@H](N(C)C)[C@H]2O)[C@](C)(OC)C[C@@H](C)C(=O)[C@H](C)[C@H]2N(CCCCn3cnc(-c4cccnc4)c3)C(=O)O[C@]12C` [Telithromycin, Ketek, Telithromycin]: the “Inhibition of abzymes ability … in ELISA” value in test [1] (setting [4]) is reported as “Positive”. In addition, the “Inhibition of abzyme activity” value in test [1] (summary in text, tested by ELISA and the lipid oxidation assay, listed as telithromycin) is “abzyme inhibitors”; in test [1] (summary in text, tested by ELISA and the lipid oxidation assay, listed as telithromycin ketek), “inhibit abzyme activity”; in test [1] (summary in text, tested by ELISA and the lipid oxidation assay, listed as telithromycin-ketek), “abzyme inhibitors”. Besides, the “Inhibition of abzymes ability … in MDA assay” value in test [2] (setting [5]) is on record as “Positive”.

In the case of `CC(=O)Oc1ccccc1C(=O)O` [Acetyl salicylic acid], the “Inhibition of abzymes ability … in ELISA” value in test [1] (setting [4]) is given as “Positive”. Besides, the “Inhibition of abzyme activity” value in test [1] (tested by ELISA and the lipid oxidation assay) is listed as “inhibit abzyme activity; also recorded: abzyme inhibitors”. The “Inhibition of abzymes ability … in MDA assay” value in test [2] (setting [5]) is reported as “Positive”.

`OC[C@@H](O)[C@@H](O)[C@H](O)[C@H](O)CO` [D-Mannitol]: the “Inhibition of abzymes ability … in ELISA” value in test [1] (setting [4]) is “Negative”. Further, the “Inhibition of abzymes ability … in MDA assay” value in test [2] (setting [5]) is listed as “Negative”.

As to `Cc1c(C)c2c(c(C)c1O)CC[C@@](C)(CCC[C@H](C)CCC[C@H](C)CCCC(C)C)O2` [(+) α-Tocopherol], the “Inhibition of abzymes ability … in ELISA” value in test [1] (setting [4]) is listed as “Negative”. Besides, the “Inhibition of abzymes ability … in MDA assay” value in test [2] (setting [5]) is listed as “Negative”.

Consider `O=C(O)c1ccccc1` [Benzoic acid], for which, in test [1], the “Inhibition of abzymes ability … in ELISA” value is listed as “Negative”. For the same molecule, the “Inhibition of abzymes ability … in MDA assay” value in test [2] (pH 5.6) is on record as “Negative”.
